In patent publication US8829185B2 (Bayer HealthCare LLC, priority 2005, dated 2014):

Legend:
FGFR1-GST = target: T1, FGFR1-GST (Homo sapiens, UniProt P11362); assay: FGFR-1 TR-FRET biochemical assay; details: bounds given in nM
T1 construct: GST; made in house
How it was run: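 LANCE TR-FRET with 5 nM FGFR1-GST, 0.6 uM ATP, 25 nM biotin-poly GT in HEPES pH 7.5/MgCl2, 1% DMSO; compound added before enzyme, 1 h at room temperature. 665/615 nm ratio, background without ATP; % inhibition over 10 μM–0.128 nM final for IC50.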

[1] = test system: histone 3 phosphorylation in colon carcinoma (HCT116); assay: p-Histone3 assay; format: cell-based; details: Homo sapiens, HCT-116, 24 h, HCT116, 24 hours treatment
Description: Compounds were assayed for the inhibition of histone 3 phosphorylation in colon carcinoma (HCT116). Briefly, 20,000 cells/well were seeded in a 96-well black-walled, poly-d-lysine plates in RPMI+10% FBS and incubated at 37° C. in 5% CO2 overnight. The following day, the cells were treated with compounds for 24 hours at 37° C. Following compound treatment; plates were centrifuged at 1000 rpm for 2 minutes and washed twice with 100 μl of cold sterile TBS. Cells were then fixed with cold 3.7% formaldehyde in TBS (4° C. for 1 hour) and then permeabalized with 0.1% Triton-X-100 in TBS (room temperature for 30 minutes). Plates were then washed with of 0.25% BSA-TBS and blocked with BSA solution for 1 hour at room temperature while shaking. The supernatant was removed and replaced with diluted primary antibody (anti-phospho-histone 3, serine 10, Cell Signaling) at 1:250 in 0.25% BSA-TBS and incubated overnight at 4° C. The plates were washed and treated with diluted secondary antibody (anti-rabbit Eu-labeled) at 1:10000 in 0.25% BSA-TBS (room temperature for 1 hour). The antibody solution was removed from each well and washed eight times. The wash buffer was replaced with 50 μl pre-warmed enhancement solution and mixed on the orbital shaker for 10 minutes. Fluorescence was detected with a Victor V Fluorescence Detector. The data are expressed as percent inhibition: % inhibition=100−((Signal with inhibitor-background)/(Signal without inhibitor-background))×100.

MDA-MB-231 cells = assay: Tumor cell proliferation (Alamar Blue), MDA-MB-231; format: cell-based; details: Homo sapiens, MDA-MB-231, 72 h
Description: (§1) Human tumor cells (e.g., HCT116 or MDA-MB-231 cells), were seeded in a Costar 96-well plate at 3.0×10^3 cells/well and grown in 150 μl of RPMI complete media (Invitrogen Corporation, Grand Island, N.Y.) containing 10% fetal bovine serum (Hyclone, Logan, Utah) at 37° C. for 16 h in an incubator with 5% CO2. To each well, 50 μl of additional growth media containing 40 μM to 18 nM concentrations of compound with 0.4% DMSO was added. Cells were grown for another 72 h at 37° C. with 5% CO2. 20 μl of Alamar Blue (Trek Diagnostic Systems, Inc., Cleveland, Ohio) reagent was added to each well and incubated for 3 h at 37° C. Plates were read in a SpectraMax Gemini (Molecular Devices, CA) with 544 nm excitation and 590 nm emission wavelength. IC50 values were determined by linear regression analysis of log drug concentration versus percent inhibition.

HCT116 cells = assay: Tumor cell proliferation (Alamar Blue), HCT116; format: cell-based; details: Homo sapiens, HCT-116, 72 h, HCT116, 72 h
Description: as §1

T1 sequence (P11362 22-822): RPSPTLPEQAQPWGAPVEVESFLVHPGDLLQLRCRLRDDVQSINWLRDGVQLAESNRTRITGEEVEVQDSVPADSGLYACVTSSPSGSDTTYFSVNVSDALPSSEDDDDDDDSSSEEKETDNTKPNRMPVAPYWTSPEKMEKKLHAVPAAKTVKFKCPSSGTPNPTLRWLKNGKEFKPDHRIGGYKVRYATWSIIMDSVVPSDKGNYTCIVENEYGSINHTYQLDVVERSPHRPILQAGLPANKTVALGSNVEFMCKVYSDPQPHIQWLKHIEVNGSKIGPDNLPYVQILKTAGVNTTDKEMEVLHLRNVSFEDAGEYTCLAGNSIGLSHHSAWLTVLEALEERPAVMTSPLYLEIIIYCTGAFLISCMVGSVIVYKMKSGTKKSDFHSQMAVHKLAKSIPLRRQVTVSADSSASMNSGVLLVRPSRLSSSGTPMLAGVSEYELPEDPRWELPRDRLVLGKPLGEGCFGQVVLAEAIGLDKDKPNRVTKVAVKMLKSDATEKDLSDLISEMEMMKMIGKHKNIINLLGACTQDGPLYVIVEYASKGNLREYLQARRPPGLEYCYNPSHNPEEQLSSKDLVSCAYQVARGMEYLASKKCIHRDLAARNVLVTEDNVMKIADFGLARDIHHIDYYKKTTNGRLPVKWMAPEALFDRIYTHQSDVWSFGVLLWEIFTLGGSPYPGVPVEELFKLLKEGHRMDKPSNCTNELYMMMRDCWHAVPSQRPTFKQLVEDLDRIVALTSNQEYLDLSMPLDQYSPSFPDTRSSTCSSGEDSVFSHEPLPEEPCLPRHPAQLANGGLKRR

Row | IC50 (FGFR1-GST) | IC50 ([1]; bounds given in μM) | IC50 (MDA-MB-231 cells; lower bound in nM) | IC50 (MDA-MB-231 cells; upper bound given in μM) | IC50 (HCT116 cells; lower bound in nM) | IC50 (HCT116 cells; upper bound given in μM) | IC50 ([1]; lower bound in nM) | Compound
1 | < 10 nM | 5 to 10 µM | > 500 nM | < 5000 nM | > 500 nM | < 4000 nM | – | COCc1c(-c2ccc(NC(=O)Nc3cc(C(F)(F)F)ccc3F)cc2)c2c(N)ncnn2c1CN1CCOCC1 [Example 12, N-{4-[4-amino-6-(methoxymethyl)-7-(morpholin-4-ylmethyl)pyrrolo[2,1-f][1,2,4]triazin-5-yl]phenyl}-N′-[2-fluoro-5-(trifluoromethyl)phenyl]urea]
2 | – | – | – | – | > 500 nM | < 4000 nM | – | COCc1c(-c2ccc(NC(=O)Nc3cc(C(F)(F)F)ccc3F)cc2)c2c(N)ncnn2c1C(C)O (centres unmarked) [Example 25, N-{4-[4-amino-7-(1-hydroxyethyl)-6-(methoxymethyl)pyrrolo[2,1-f][1,2,4]triazin-5-yl]phenyl}-N′-[2-fluoro-5-(trifluoromethyl)phenyl]urea]
3 | 10 to 100 nM | < 5 µM | > 500 nM | < 5000 nM | > 500 nM | < 4000 nM | > 0.5 µM | N#Cc1c(C(=O)NCC(F)(F)F)c(-c2ccc(NC(=O)Nc3cc(C(F)(F)F)ccn3)cc2)c2c(N)ncnn12 [Example 7, 4-amino-7-cyano-N-(2,2,2-trifluoroethyl)-5-{4-[({[4-(trifluoromethyl)pyridin-2-yl]amino}carbonyl)-amino]phenyl}pyrrolo[2,1-f][1,2,4]triazine-6-carboxamide]
4 | 10 to 100 nM | – | > 500 nM | < 5000 nM | > 500 nM | < 4000 nM | – | COCc1c(-c2ccc(NC(=O)Nc3cc(C(F)(F)F)ccc3F)cc2)c2c(N)ncnn2c1CO [Example 23, N-{4-[4-amino-7-(hydroxymethyl)-6-(methoxymethyl)-pyrrolo[2,1-f][1,2,4]triazin-5-yl]phenyl}-N′-[2-fluoro-5-(trifluoromethyl)-phenyl]urea]
5 | 10 to 100 nM | < 5 µM | > 500 nM | < 5000 nM | > 500 nM | < 4000 nM | > 0.5 µM | COCc1c(-c2ccc(NC(=O)Nc3cc(C(F)(F)F)ccc3F)cc2)c2c(N)ncnn2c1CN1CCN(C)CC1 [Example 13, N-(4-{4-amino-6-(methoxymethyl)-7-[(4-methylpiperazin-1-yl)methyl]pyrrolo[2,1-f][1,2,4]triazin-5-yl}phenyl)-N′-[2-fluoro-5-(trifluoro-methyl)phenyl]urea]
6 | < 10 nM | 5 to 10 µM | – | – | – | – | – | Nc1ncnn2c(CN3CCOCC3)c(-c3cnco3)c(-c3ccc(NC(=O)Nc4cc(C(F)(F)F)ccn4)c(F)c3)c12 [Example 33, N-4-[4-amino-7-(morpholin-4-ylmethyl)-6-(1,3-oxazol-5-yl)pyrrolo[2,1-f][1,2,4]triazin-5-yl]-2-fluorophenyl-N′-[4-(trifluoromethyl)pyridin-2-yl]urea]
7 | < 10 nM | < 5 µM | – | – | – | – | > 0.5 µM | Nc1ncnn2c(CN3CCOCC3)c(C(=O)NCC(F)(F)F)c(-c3ccc(NC(=O)Nc4cc(C(F)(F)F)ccc4F)cc3)c12 [Example 9, 4-amino-5-{4-[({[2-fluoro-5-(trifluoromethyl)-phenyl]amino}carbonyl)amino]phenyl}-7-(morpholin-4-ylmethyl)-N-(2,2,2-trifluoroethyl)pyrrolo[2,1-f][1,2,4]triazine-6-carboxamide]
